# Non-standard residues stand in square brackets, D forms with d. Residues, ends and D or L forms follow the SMILES beside them.
# What was measured:
# [1] = system: hyperalgesia evoked by acetic acid; assay: Contorsions evoked by acetic acid, Example 19; assay type: in vivo, mice; conditions: for number of contorsions (median), 10 to 20 min after acetic acid: 30 min before acetic acid
# Description: The number of contorsions (abdominal constrictions or writhes) was counted in the period between 10 and 20 min after ip challenge with acetic acid by an observer unaware of drug treatment.
# [2] = system: hyperalgesia evoked by PGE2; assay: Rat paw pressure test, hyperalgesia evoked by PGE2; assay type: in vivo; conditions: for DELTA REACTION TIME: 3 h after PGE2, control 16.8; for ED50 antagonising PGE2 evoked hyperalgesia / antagonism of hyperalgesia evoked by PGE2: rats
# [3] = system: hyperalgesia evoked by IL-1β; assay: Modified Randall-Sellito rat paw pressure test, hyperalgesia evoked by IL-1β; assay type: in vivo; conditions: for DELTA REACTION TIME: 3h after IL-1β, control 23.9; for ED50 antagonising IL-1β evoked hyperalgesia / antagonism of hyperalgesia evoked by IL-1β: rats; for antagonism of hyperalgesia evoked by IL-1β: peptide given before IL-1β
# Description: The hyperalgesic activity of IL-1β was investigated by a modified Randall-Sellito rat paw pressure test (Ferreira et al, Eur. J. Pharacol. 53, 39-48, 1978).
# The IL-1β was given either intraplantar (ipl, injection volume=0.1 ml) or intraperitoneally (ip, injection volume=0.3 ml).
# The intensity of hyperalgesia was quantified as the variation of the reaction time (Δ reaction time, sec) obtained by subtracting the value measured 1,2,3 or 4h after administration of the hyperalgesic agent from the pre-injection control reaction time (zero time). The experimenter was unaware of the group treatments.
# The vertical bars are standard errors of the means (s.e.m's) of values obtained in groups of 5 rats.
# Each symbol or histogram represents the mean response of 5 animals per treatment group. Vertical bars are s.e.m's.
# The data are means±s.e.m.'s of 5 animals per treatment group.
# Each symbol represents the mean response of 5 animals per treatment group. Vertical bars are s.e.m.'s.
# Treatments were given ip, lh before Il-1β, also given ip. There were 5 animals per treatment group.
# Delta reaction time was measured 3h after Il-1β administration.
# The Control was II-1β (0.05U), given ip.
# [4] = system: hyperalgesia evoked by DbcAMP; assay: Rat paw pressure test, hyperalgesia evoked by DbcAMP; assay type: in vivo; conditions: 200 μg/150 g rat ip 1 h before DbcAMP (100 μg/paw) ipl; for DELTA REACTION TIME: 3 h after DbcAMP, control 17.2
# febrile rabbits = conditions: Richards and Lipton, Peptides 5 (1984) 815-817; cited from earlier work
# [5] = 20 μg/150 g rat ip 1h before PGE2 ipl
# [6] = 50 μg/150 g rat ip 1h before PGE2 ipl
# [7] = 100 μg/150 g rat ip 1h before PGE2 ipl
# [8] = 200 μg/150 g rat ip 1h before PGE2 ipl
# [9] = 20 μg/150 g rat ip 1h before IL-1β (0.05U) ip
# [10] = 50 μg/150 g rat ip 1h before IL-1β (0.05U) ip
# [11] = 100 μg/150 g rat ip 1h before IL-1β (0.05U) ip
# [12] = 200 μg/150 g rat ip 1h before IL-1β (0.05U) ip
compound,measurement,setting,value
"NCCCC[C@H](N)C(=O)N1CCC[C@@H]1C(=O)O [K(D)P, Lys-D-Pro] (H-Lys-[dP]-OH)",% reductions from control values in mice injected with saline,[1]; 5 mg/kg ip,-58%
same,"number of contorsions (median), 10 to 20 min after acetic acid",[1]; 5 mg/kg ip,11
same,% reductions from control values in mice injected with saline,[1]; 5 mg/kg po,-10%
same,"number of contorsions (median), 10 to 20 min after acetic acid",[1]; 5 mg/kg po,19
same,% reductions from control values in mice injected with saline,[1]; 10 mg/kg po,-36%
same,"number of contorsions (median), 10 to 20 min after acetic acid",[1]; 10 mg/kg po,13.5
same,% reductions from control values in mice injected with saline,[1]; 20 mg/kg ip,-77%
same,"number of contorsions (median), 10 to 20 min after acetic acid",[1]; 20 mg/kg ip,6
same,% reductions from control values in mice injected with saline,[1]; 20 mg/kg po,-38%
same,"number of contorsions (median), 10 to 20 min after acetic acid",[1]; 20 mg/kg po,14
same,"analgesic activity against hyperalgesia evoked by acetic acid, given ip",[1],effective analgesic
same,"analgesic activity against hyperalgesia evoked by acetic acid, given orally",[1]; po,effective analgesic
"CC(C)[C@H](NC(=O)[C@@H]1CCCN1C(=O)[C@@H](N)CCCCN)C(=O)O [KPV, Lys-Pro-Val] (H-Lys-Pro-Val-OH)",% change of delta reaction time vs control (=100%),[2]; [5],-11.3%
same,DELTA REACTION TIME,[2]; [5],14.9 ± 0.4 s
same,% change of delta reaction time vs control (=100%),[2]; [6],-22.6%
same,DELTA REACTION TIME,[2]; [6],13.0 ± 0.3 s
same,% change of delta reaction time vs control (=100%),[2]; [7],-41.1%
same,DELTA REACTION TIME,[2]; [7],9.9 ± 0.2 s
same,% change of delta reaction time vs control (=100%),[2]; [8],-53.6%
same,DELTA REACTION TIME,[2]; [8],7.8 ± 0.6 s
same,ED50 antagonising PGE2 evoked hyperalgesia,[2],approximately 170 μg/150 g rat
same,antagonism of hyperalgesia evoked by PGE2,[2],antagonize hyperalgesia evoked by PGE2
same,% change of delta reaction time vs control (=100%),[3]; [9],-21.3%
same,DELTA REACTION TIME,[3]; [9],18.8 ± 0.3 s
same,% change of delta reaction time vs control (=100%),[3]; [10],-52.7%
same,DELTA REACTION TIME,[3]; [10],11.3 ± 0.5 s
same,% change of delta reaction time vs control (=100%),[3]; [11],-69.9%
same,DELTA REACTION TIME,[3]; [11],7.2 ± 0.6 s
same,% change of delta reaction time vs control (=100%),[3]; [12],-83.7%
same,DELTA REACTION TIME,[3]; [12],3.9 ± 0.3 s
same,ED50 antagonising IL-1β evoked hyperalgesia,[3],70 μg/150 g rat
same,antagonism of hyperalgesia evoked by IL-1β,[3],more potent antagonists of I1-1β-evoked hyperalgesia than Lys-D-Pro-Thr
same,% change of delta reaction time vs control (=100%),[4],-8.1%
same,DELTA REACTION TIME,[4],15.8 ± 0.3 s
same,antipyretic effect,febrile rabbits,antipyretic effect
"CC(C)[C@H](NC(=O)[C@H]1CCCN1C(=O)[C@@H](N)CCCCN)C(=O)O [K(D)PV, Lys-D-Pro-Val] (H-Lys-[dP]-Val-OH)",% change of delta reaction time vs control (=100%),[2]; [5],-16.7%
same,DELTA REACTION TIME,[2]; [5],14.0 ± 0.4 s
same,% change of delta reaction time vs control (=100%),[2]; [6],-20.2%
same,DELTA REACTION TIME,[2]; [6],13.4 ± 0.4 s
same,% change of delta reaction time vs control (=100%),[2]; [7],-46±4%
same,DELTA REACTION TIME,[2]; [7],9.0 ± 0.2 s
same,% change of delta reaction time vs control (=100%),[2]; [8],-64.3%
same,DELTA REACTION TIME,[2]; [8],6.0 ± 0.3 s
same,ED50 antagonising PGE2 evoked hyperalgesia,[2],~140 μg/150 g rat
same,antagonism of hyperalgesia evoked by PGE2,[2],antagonize hyperalgesia evoked by PGE2
same,% change of delta reaction time vs control (=100%),[3]; [9],-23.9%
same,DELTA REACTION TIME,[3]; [9],18.2 ± 0.4 s
same,% change of delta reaction time vs control (=100%),[3]; [10],-64.4%
same,DELTA REACTION TIME,[3]; [10],8.5 ± 0.6 s
same,% change of delta reaction time vs control (=100%),[3]; [11],84.1%
same,DELTA REACTION TIME,[3]; [11],3.8 ± 0.7 s
same,% change of delta reaction time vs control (=100%),[3]; [12],-88.3%
same,DELTA REACTION TIME,[3]; [12],2.8 ± 0.6 s
same,ED50 antagonising IL-1β evoked hyperalgesia,[3],40 μg/150 g rat
same,antagonism of hyperalgesia evoked by IL-1β,[3],more potent antagonists of I1-1β-evoked hyperalgesia than Lys-D-Pro-Thr
same,% change of delta reaction time vs control (=100%),[4],-7.0%
same,DELTA REACTION TIME,[4],16.0 ± 0.2 s
same,% reductions from control values in mice injected with saline,[1]; 2 mg/kg ip,-33%
same,"number of contorsions (median), 10 to 20 min after acetic acid",[1]; 2 mg/kg ip,19
same,% reductions from control values in mice injected with saline,[1]; 10 mg/kg ip,-38%
same,"number of contorsions (median), 10 to 20 min after acetic acid",[1]; 10 mg/kg ip,17
same,% reductions from control values in mice injected with saline,[1]; 30 mg/kg ip,-45%
same,"number of contorsions (median), 10 to 20 min after acetic acid",[1]; 30 mg/kg ip,15.5
same,% reductions from control values in mice injected with saline,[1]; 100 mg/kg ip,-74%
same,"number of contorsions (median), 10 to 20 min after acetic acid",[1]; 100 mg/kg ip,7
same,% reductions from control values in mice injected with saline,[1]; 100 mg/kg po,-52%
same,"number of contorsions (median), 10 to 20 min after acetic acid",[1]; 100 mg/kg po,13
same,"analgesic activity against hyperalgesia evoked by acetic acid, given ip",[1],dose-related analgesic activity

# From patent publication US5389615A, “Peptides and pharmaceutical composition thereof in the treatment of pain” (British Technology Group Ltd., priority 1988, dated 1995)
